Each structure is given as a SMILES string. pKi: −log10 of the molar value. The source made the active and inactive calls. The calls are words filed in the database; no cut-off is given here.

The text below walks through data of ChEMBL document CHEMBL4312034, “Virtual screening-driven discovery of dual 5-HT6/5-HT2A receptor ligands with pro-cognitive properties” (Eur J Med Chem, 2020).

The target in data set [1] is T1, 5-hydroxytryptamine receptor 6 (Homo sapiens, UniProt P50406). In words: Displacement of [3H]-LSD from human 5-HT6R expressed in HEK293 cells after 1 hr by microbeta plate reader analysis. Format: cell-based.
T1 sequence (P50406 whole entry): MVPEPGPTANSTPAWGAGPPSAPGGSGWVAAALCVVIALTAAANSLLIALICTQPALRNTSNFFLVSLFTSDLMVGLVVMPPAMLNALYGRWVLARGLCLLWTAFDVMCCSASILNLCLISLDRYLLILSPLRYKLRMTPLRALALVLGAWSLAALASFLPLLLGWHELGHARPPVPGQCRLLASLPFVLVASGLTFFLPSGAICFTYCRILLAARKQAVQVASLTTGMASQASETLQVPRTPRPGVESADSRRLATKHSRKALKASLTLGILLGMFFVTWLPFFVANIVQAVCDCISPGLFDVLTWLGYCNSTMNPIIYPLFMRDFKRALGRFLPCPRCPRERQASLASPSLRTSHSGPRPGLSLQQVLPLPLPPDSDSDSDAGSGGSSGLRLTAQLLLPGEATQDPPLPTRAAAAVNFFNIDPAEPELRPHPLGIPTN
For data set [2], the target named is 5-hydroxytryptamine receptor 2A (Homo sapiens, UniProt P28223). The data set can be described thus: Binding affinity to human 5-HT2AR expressed in HEK293 cells by competitive binding assay. The data set is classed as cell-based.
Sequence of 5-hydroxytryptamine receptor 2A (P28223 whole entry): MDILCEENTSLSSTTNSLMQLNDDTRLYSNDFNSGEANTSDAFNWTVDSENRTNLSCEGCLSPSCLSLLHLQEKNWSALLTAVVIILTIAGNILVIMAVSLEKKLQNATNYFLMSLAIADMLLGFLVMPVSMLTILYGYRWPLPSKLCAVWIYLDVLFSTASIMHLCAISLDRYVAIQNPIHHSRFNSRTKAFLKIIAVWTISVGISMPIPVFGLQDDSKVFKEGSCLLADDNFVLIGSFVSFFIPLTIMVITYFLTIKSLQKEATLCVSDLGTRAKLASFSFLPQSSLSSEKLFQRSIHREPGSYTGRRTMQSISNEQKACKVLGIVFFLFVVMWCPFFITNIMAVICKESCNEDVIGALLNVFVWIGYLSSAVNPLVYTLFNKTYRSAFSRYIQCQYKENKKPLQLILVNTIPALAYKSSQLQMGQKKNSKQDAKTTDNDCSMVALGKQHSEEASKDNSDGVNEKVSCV
Data set [3] concerns the target T2, 5-hydroxytryptamine receptor 1A (Homo sapiens, UniProt P08908).
T2 sequence (P08908 whole entry): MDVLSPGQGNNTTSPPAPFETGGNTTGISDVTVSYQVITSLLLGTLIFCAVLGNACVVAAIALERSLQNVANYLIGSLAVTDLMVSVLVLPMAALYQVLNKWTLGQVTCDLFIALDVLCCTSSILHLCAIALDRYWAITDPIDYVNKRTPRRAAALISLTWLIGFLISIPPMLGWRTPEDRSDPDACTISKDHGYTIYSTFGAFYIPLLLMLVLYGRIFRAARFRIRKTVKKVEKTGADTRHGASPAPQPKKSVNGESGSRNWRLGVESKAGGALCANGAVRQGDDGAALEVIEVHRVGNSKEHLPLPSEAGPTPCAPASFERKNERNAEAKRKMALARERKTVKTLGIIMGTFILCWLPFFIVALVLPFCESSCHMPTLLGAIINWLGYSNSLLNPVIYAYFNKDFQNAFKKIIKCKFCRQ
The data set can be described thus: Displacement of [3H]-8-OH-DPAT from human 5-HT1A receptor expressed in HEK293 cells after 1 hr by microbeta plate reader analysis. Format: cell-based.

Data set [4] addresses 5-hydroxytryptamine receptor 7 (Homo sapiens, UniProt P34969). In words: Displacement of [3H]-CT from human 5-HT7 receptor expressed in HEK293 cells after 1 hr by microbeta plate reader analysis. Format: cell-based.
The target of the next data set is D(2) dopamine receptor (Homo sapiens, UniProt P14416). The data set can be described thus: Displacement of [3H]-raclopride from human D2R expressed in HEK293 cells after 1 hr by microbeta plate reader analysis. Format: cell-based.
Sequence of D(2) dopamine receptor (P14416 whole entry): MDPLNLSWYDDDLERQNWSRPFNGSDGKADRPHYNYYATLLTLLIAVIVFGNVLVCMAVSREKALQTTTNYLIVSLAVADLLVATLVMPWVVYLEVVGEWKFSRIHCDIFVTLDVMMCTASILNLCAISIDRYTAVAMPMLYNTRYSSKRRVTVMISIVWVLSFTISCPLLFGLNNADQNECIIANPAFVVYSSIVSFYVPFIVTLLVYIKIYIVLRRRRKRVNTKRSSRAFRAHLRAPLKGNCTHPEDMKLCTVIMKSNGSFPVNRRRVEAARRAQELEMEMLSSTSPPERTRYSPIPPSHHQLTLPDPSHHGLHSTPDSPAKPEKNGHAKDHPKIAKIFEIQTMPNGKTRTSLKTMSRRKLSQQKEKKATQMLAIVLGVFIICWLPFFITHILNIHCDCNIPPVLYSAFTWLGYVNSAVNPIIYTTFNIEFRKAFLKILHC
The target of data set [5] is T1, 5-hydroxytryptamine receptor 6. In words: Binding affinity to 5-HT6R (unknown origin) assessed as inhibitory constant.
Data set [6] is described as follows: Half life in rat liver microsomes up to 60 mins by HPLC-LC/MS analysis.
The next data set concerns Rattus norvegicus. The data set can be described thus: Reversal of phencyclidine-induced memory impairment in Sprague-Dawley rat at 1 to 3 mg/kg, po for 2 hrs followed by phencyclidine treatment 45 mins prior to testing by novel object recognition test. Format: functional, organism-based.
The nature of another data set: in vitro. Conditions: rat.

Sequence of 5-hydroxytryptamine receptor 7 (P34969 whole entry): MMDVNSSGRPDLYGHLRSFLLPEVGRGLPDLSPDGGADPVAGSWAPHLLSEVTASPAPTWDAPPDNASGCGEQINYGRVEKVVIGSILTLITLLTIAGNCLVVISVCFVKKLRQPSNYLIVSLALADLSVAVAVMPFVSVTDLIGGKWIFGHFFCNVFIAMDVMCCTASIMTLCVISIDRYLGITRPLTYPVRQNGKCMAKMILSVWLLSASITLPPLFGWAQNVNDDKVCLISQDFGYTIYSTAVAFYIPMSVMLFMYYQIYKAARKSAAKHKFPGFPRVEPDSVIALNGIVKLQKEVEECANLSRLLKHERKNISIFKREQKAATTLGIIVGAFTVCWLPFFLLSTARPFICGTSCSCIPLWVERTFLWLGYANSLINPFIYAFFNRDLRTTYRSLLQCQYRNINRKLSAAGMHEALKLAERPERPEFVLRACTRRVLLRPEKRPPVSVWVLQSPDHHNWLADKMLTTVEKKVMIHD

As for `CN(CCc1c[nH]c2ccccc12)Cc1ccc(-c2ccccc2)o1`, the pKi is 7.21 in data set [1]; 6.70 in data set [2]; 6.11 in data set [3]; 6.28 in data set [4]; 6.43 at D(2) dopamine receptor.
In the case of `COc1cccc2[nH]cc(CCNCc3ccc(-c4ccc(O)cc4)o3)c12`, the pKi in data set [1] was 7.85; in data set [2], 6.88; in [3], 6.14; in [4], 5.68; on D(2) dopamine receptor, 6.75.
Turning to `CC1=CC=CN2C(=O)C3C=C(S(=O)(=O)c4ccccc4)C(=N)N(Cc4ccc(F)cc4)C3N=C12` (centres undefined), in [5], the pKi is 6.23.
In the case of `COc1ccc2occ(CCNCc3ccc(-c4ccc(O)cc4)o3)c2c1`, in data set [1], the pKi was 5.77.
Consider `Fc1ccc2c(CCNCc3cccc(OCC(F)(F)C(F)F)c3)c[nH]c2c1` [IDALOPIRDINE], for which the pKi in [2] was 6.10; in data set [3], 5.40; in data set [4], 5.06; at D(2) dopamine receptor, 5.92. Also, the half-life at 1 h in data set [6] (microsomes) was 14 min. Also, the result in the data set on Rattus norvegicus was Active.
As to `c1ccc(-c2ccc(CNCCc3c[nH]c4ccccc34)o2)cc1`, the pKi is 7.04 in data set [1]; 6.34 in data set [2]; 6.90 in [3]; 5.89 in [4]; 6.17 on D(2) dopamine receptor.
On the same counts, the results for `COc1ccc2[nH]cc(CCNCc3ccc(-c4cnc5ccccc5c4)o3)c2c1` are 7.00, 6.07, 5.98, 5.01 and 5.99.
Take `CN1CCN(c2oc(-c3ccccc3Cl)nc2S(=O)(=O)c2ccccc2)CC1`: the pKi in data set [5] is 7.21.
Regarding `COc1ccc2[nH]cc(CCNCc3ccc(-c4ccc(O)cc4)o3)c2c1`, the pKi in data set [1] is 8.52; in data set [2], 7.39; in [3], 6.92; in data set [4], 6.69; at D(2) dopamine receptor, 6.66. This compound registered a half-life at 1 h in data set [6] (liver microsomes) of 22 min. Besides, the microsomal CLint at 1 h in “in vitro” (liver microsomes) is 63.4 µL/min/mg.
Regarding `COc1ccc2[nH]cc(CCNCc3ccc(-c4cccc(O)c4)o3)c2c1`, the pKi in data set [1] was 7.26; in [2], 7.54; in [3] it was 7.19; in data set [4], 5.50; at D(2) dopamine receptor, 6.41.
Regarding `COc1cccc(-c2ccc(CNCCc3c[nH]c4cccc(OC)c34)o2)c1`, the pKi in [1] is 6.61.
For the compound `COc1cccc2[nH]cc(CCNCc3ccc(-c4ccc(F)cc4)o3)c12`, the pKi in [1] was 6.88.
`COc1ccc2[nH]cc(CCN(C)Cc3ccc(-c4ccc(O)cc4)o3)c2c1` had a pKi in data set [1] of 6.70. In data set [6] (microsomes), this compound showed a half-life at 1 h of 10 min. In “in vitro” (microsomes), this compound had a microsomal CLint at 1 h of 138 µL/min/mg.
As to `Clc1cc(Cl)cc(-c2ccc(CNCCc3c[nH]c4ccccc34)o2)c1`, in data set [1], the pKi was 6.58.
On to `Clc1cccc(-c2ccc(CNCCc3c[nH]c4ccccc34)o2)c1`, for which, in data set [1], the pKi is 6.73.
For the compound `Oc1ccc(-c2ccc(CNCCc3c[nH]c4ncccc34)o2)cc1`, the pKi in data set [1] was 6.27.
Consider `COc1ccc(-c2ccc(CNCCc3c[nH]c4ccc(OC)cc34)o2)cc1`, for which the pKi was 7.05 in data set [1]; 7.46 in data set [2]; 6.48 in [3]; 5.48 in [4]; 5.86 on D(2) dopamine receptor.
Turning to `COc1ccc2[nH]cc(CCNCc3ccc(-c4ccc(Cl)cc4)o3)c2c1`, the pKi in data set [1] was 7.17; in data set [2], 6.22; in data set [3] it was 6.66; in data set [4] it was 5.66; at D(2) dopamine receptor, 6.24.
`CC(C)Oc1cccc(-c2ccc(CNCCc3c[nH]c4ccccc34)o2)c1`: the pKi in data set [1] was 6.31.
Take `Oc1ccc(-c2ccc(CNCCc3coc4ccc(F)cc34)o2)cc1`: the pKi in data set [1] is 6.28.
With `COc1ccc2[nH]cc(CC(C)NCc3ccc(-c4ccc(O)cc4)o3)c2c1` (centres undefined), in [1], the pKi was 6.46.
The same measure, in the same setting: with `CCCN(CCc1c[nH]c2ccccc12)Cc1ccc(-c2ccccc2)o1` the figure was 6.48; with `COc1cccc(-c2ccc(CNC(C)Cc3cn(C)c4ccccc34)o2)c1` (centres undefined), 5.99.
On to `CN1CCN(c2ccnc(SCc3ccccc3Cl)n2)CC1`, for which the pKi in data set [5] was 5.05.
Turning to `CC(=O)Oc1ccc(-c2ccc(CNCCc3c[nH]c4ccccc34)o2)cc1`, the pKi in [1] was 5.83.
In turn, `COc1cccc2[nH]cc(CCNCc3ccc(-c4ccccc4)o3)c12` gave a pKi in data set [1] of 6.96.
On to `Cc1ccc2[nH]cc(CCNCc3ccc(-c4ccc(O)cc4)o3)c2c1`, for which the pKi is 8.30 in data set [1], 7.66 in [2], 6.40 in data set [3] and 7.29 in data set [4].
In the case of `COc1ccc(-c2ccc(CNCCc3c[nH]c4ccccc34)o2)cc1OC`, in [1], the pKi is 6.16.
Consider `c1ccc2c(-c3ccc(CNCCc4c[nH]c5ccccc45)s3)cccc2c1`, for which the pKi in data set [1] was 6.38.
Regarding `CN1C=C2C(NC(=S)NC2c2ccc(F)cc2)/C(=C\c2ccc(F)cc2)C1` (centres undefined), the pKi in data set [5] is 6.22.
On to `COc1cc2c(cc1OC)C(=O)C(CC1CCN(Cc3ccccc3)CC1)C2` (centres undefined) [DONEPEZIL], for which the half-life at 1 h in data set [6] (microsomes) was 96 min. Moreover, in “in vitro” (microsomes), the microsomal CLint at 1 h was determined as 14.4 µL/min/mg.
`Cn1cc(CCNCc2ccc(-c3ccccc3)o2)c2ccccc21` had a pKi in data set [1] of 6.52.
On to `Oc1c(CN2CCCC2)cc(CSc2ccccc2)c2cccnc12`, for which the pKi in data set [5] was 6.05.
For the compound `Oc1ccc(-c2ccc(CNCCc3c[nH]c4ccc(Cl)cc34)o2)cc1`, the results for the pKi in data set [1], in [2] and in data set [3] were 7.22, 7.48 and 6.37, respectively.
In the case of `N=C(NC1=NC2CCCCC2C(=O)N1)N1CCC(Cc2ccccc2)CC1` (centres undefined), the pKi in [5] was 7.68.
In turn, `COc1cccc(-c2ccc(CNCCc3cn(C)c4ccccc34)o2)c1` showed a pKi in data set [1] of 6.25.
Consider `c1ccc2c(-c3ccc(CNCCc4c[nH]c5ccccc45)o3)cccc2c1`, for which the pKi in data set [1] is 6.70.
With `Oc1ccc(-c2ccc(CNCCc3c[nH]c4cc(F)ccc34)o2)cc1`, the negative-log Ki (pKi) is 8.70 in data set [1]; 7.02 in data set [2]; 6.69 in data set [3]; 5.56 in data set [4]; 6.35 at D(2) dopamine receptor.
`c1ccc(-c2ccc(CNCCc3c[nH]c4ccccc34)[nH]2)cc1` gave a pKi in [1] of 6.58.
As for `CCc1cc2c(N3CCN(C)CC3)nc(C)nc2s1`, in [5], the pKi is 6.50.
Compound `CC(Cc1c[nH]c2ccccc12)NCc1ccc(-c2ccc(O)cc2)o1` (centres undefined) showed a pKi in data set [1] of 6.32.
As to `c1ccc2c(CCNCc3ccc(-c4ccc5c(c4)OCO5)o3)c[nH]c2c1`, the pKi in data set [1] was 6.66.
Compound `COc1ccc2[nH]cc(CCNCc3ccc(-c4cc(Cl)cc(Cl)c4)o3)c2c1` showed a pKi in data set [1] of 6.68.
For `COc1cccc(-c2ccc(CNCCc3c[nH]c4ccc(OC)cc34)o2)c1`, the pKi in data set [1] was 7.12; in data set [2], 6.67; in data set [3] it was 7.04; in data set [4], 6.06.
`c1coc(-c2ccc(CNCCc3c[nH]c4ccccc34)o2)c1` showed a pKi in data set [1] of 6.38.
`c1ccc(-c2ccc(CNCCc3c[nH]c4ccccc34)s2)cc1` gave a pKi in [1] of 6.82.
The compound `O=[N+]([O-])c1ccc(-c2ccc(CNCCc3c[nH]c4ccccc34)o2)cc1` gave a pKi in data set [1] of 6.11.
For the compound `COc1ccc(Cc2nc(N3CCNCC3)nc3cccnc23)c(OC)c1`, in [5], the pKi was 7.24.
In the case of `COc1ccc2[nH]cc(CCNCc3ccc(-c4cn[nH]c4)o3)c2c1`, the pKi in data set [1] was 6.92; in [2], 7.55; in data set [3] it was 6.84; in [4] it was 5.82; at D(2) dopamine receptor, 5.76.
As to `Oc1ccc(-c2ccc(CNCCc3c[nH]c4ccccc34)o2)cc1`, the pKi in [1] was 8.15; in data set [2], 6.76; in [3] it was 6.53; in [4], 5.79; on D(2) dopamine receptor it was 6.12. The half-life at 1 h in [6] (liver microsomes) came to 6 min. In addition, the microsomal CLint at 1 h in “in vitro” (liver microsomes) was 222 µL/min/mg.
In the case of `CN1CCN(c2nc(NCc3ccccc3)c3c(n2)N(C)NC3)CC1`, the pKi in data set [5] is 8.15.
Same read-out and setting: next, `Cc1nc(N2CCCN(C)CC2)c2c3c(sc2n1)CCC3`: 6.70.
Consider `CC(CSc1nc2ccccc2c(=O)n1-c1ccc(Cl)cc1)N(C)C` (centres undefined), for which the pKi in data set [5] is 7.70.
The same measure, in the same setting: with `Cc1cc(OCCN(C)C)nc(NCc2ccccc2)n1` the figure was 6.06.
Take `COc1ccc2[nH]c(C)c(CCNCc3ccc(-c4ccc(O)cc4)o3)c2c1`: the pKi in [1] was 7.68; in data set [2], 7.38; in data set [4], 5.27; on D(2) dopamine receptor it was 6.78. Moreover, the half-life at 1 h in data set [6] (liver microsomes) worked out at 8 min. This compound gave a microsomal CLint at 1 h in the data set “in vitro” (liver microsomes) of 184 µL/min/mg.
